Columns and labels:
caAT1R podocytes = test: Cell viability assay in podocytes expressing caAT1R; assay type: cell-based, mouse; conditions: 30 μM ML204, 30 μM AC1903 or 50 μM NSC23677 for 36 hours
Experimental: Podocyte culture and viral transduction: Immortalized mouse podocytes were cultured as previously described (10, 11). Podocyte viral transduction was performed using lentivirus as previously described (10, 11). Briefly, lentivirus production was carried out in HEK293T cells at 60% confluence, and viral particles were collected two days after transfection and purified by centrifugation at 1,000 rcf for 5 min. Purified lentivirus was frozen at −80° C. until further use. Podocytes were transduced with lentivirus after 7 days of differentiation, and assays were performed 5 days after viral transduction.
For experiments in FIG. 4B/C, pCDNA3.1 AT1AR-Δ324 (rat AT1R NM_030985.4) containing HA tag (Plasmid #45635, Addgene) underwent site directed mutagenesis (Agilent) to generate the N111S substitution. For FIG. 4B, differentiated podocytes were transduced with the AT1A-N111S/Δ324 construct in six-well plates. Six days after viral transduction, cells were treated with either vehicle, 30 μM ML204, 30 μM AC1903 or 50 μM NSC23677 for 36 hours. Intracellular production of ROS was measured using a cell-permeable fluorescent dye, 5-(and-6)-chloromethyl-2′,7′-dichlorodihydrofluorescein diacetate, acetyl ester (CM-H2DCFDA, Molecular Probes). Cells were incubated with 5 μM CM-H2DCFDA at 37° C. for 45 min in Hanks' balanced salt solution (HBSS). Cells were then collected, resuspended in HBSS, stained with propidium iodide and the fluorescence intensity was assessed by flow cytometry using MACSQuant Analyzer (Miltenyi Biotec, Bergisch Gladbach, Germany). Living cells, which were PI negative, were selected by FACS gating and the fluorescence of CM-H2DCFDA was recorded on the FL-1 channel (525 nm). For FIG. 4C, differentiated podocytes were transduced with the AT1A-N111S/Δ324 construct in 96 well plates. Six days after transduction, the cells were treated with either vehicle, 30 μM ML204, 30 μM AC1903 or 50 μM NSC23677 for 36 hours. […]

TRPC5 channel = biological target: T1, TRPC5 channel (Rattus norvegicus, UniProt Q8VD38); test: Glomerular inside-out single-channel recordings, riluzole-activated TRPC5 channel activity; assay type: cell-based; conditions: Rilu 3 μM
T1 construct: Acutely isolated glomeruli were prepared as described above; from tissue; host or cells: acutely isolated glomeruli (podocytes) of AT1R Tg and WT rats
T1 sequence (Q8VD38 1-974): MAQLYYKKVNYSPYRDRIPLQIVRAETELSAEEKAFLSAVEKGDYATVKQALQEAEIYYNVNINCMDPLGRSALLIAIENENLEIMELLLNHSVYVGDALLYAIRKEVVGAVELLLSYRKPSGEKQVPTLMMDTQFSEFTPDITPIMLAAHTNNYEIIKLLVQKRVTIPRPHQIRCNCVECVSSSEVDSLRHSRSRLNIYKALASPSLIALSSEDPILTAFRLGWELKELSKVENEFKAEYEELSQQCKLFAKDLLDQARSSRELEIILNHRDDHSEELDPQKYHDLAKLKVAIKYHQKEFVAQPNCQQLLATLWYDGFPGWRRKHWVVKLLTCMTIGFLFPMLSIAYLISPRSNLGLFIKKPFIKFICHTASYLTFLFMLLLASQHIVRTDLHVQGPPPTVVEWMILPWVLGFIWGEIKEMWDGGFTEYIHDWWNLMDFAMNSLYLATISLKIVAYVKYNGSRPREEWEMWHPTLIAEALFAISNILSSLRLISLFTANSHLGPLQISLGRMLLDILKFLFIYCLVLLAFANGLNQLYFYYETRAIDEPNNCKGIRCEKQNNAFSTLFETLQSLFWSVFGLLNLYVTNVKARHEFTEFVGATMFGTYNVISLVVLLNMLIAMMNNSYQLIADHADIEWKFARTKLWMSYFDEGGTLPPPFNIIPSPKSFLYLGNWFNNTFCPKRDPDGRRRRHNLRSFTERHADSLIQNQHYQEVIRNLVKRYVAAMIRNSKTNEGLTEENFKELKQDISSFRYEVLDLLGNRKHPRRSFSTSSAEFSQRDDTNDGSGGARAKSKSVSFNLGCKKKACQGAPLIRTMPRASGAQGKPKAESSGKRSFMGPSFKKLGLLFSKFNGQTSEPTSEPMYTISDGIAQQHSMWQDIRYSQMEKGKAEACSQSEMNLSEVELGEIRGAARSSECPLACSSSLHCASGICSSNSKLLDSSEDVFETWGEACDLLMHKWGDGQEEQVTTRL
Experimental: Acute glomeruli isolation and Ca^2+-imaging: WT and AT1R Tg littermates were killed and kidneys were quickly dissected and washed with ice-cold PBS. After isolation using the sieving technique as previously described (11), glomeruli were incubated with the Ca^2+ indicator Fura2-AM (1 μM; Invitrogen) at 37° C. for 15 min. The extracellular solution for Ca^2+-imaging contained (in mM) 140 NaCl, 5 KCl, 10 HEPES, 2 MgCl2, 2 CaCl2, 10 glucose, with pH7.4 adjusted with NaOH. Glomerular Ca^2+-imaging was performed using an inverted microscope (Olympus IX70) with a high-speed CCD camera (Hamamatsu Photonics). Images were taken and analyzed using the Metafluor software (Molecular Devices). It should be noted that Fura-2 is most often taken up by podocytes at the periphery of the isolated glomerulus, but the specificity of recordings in podocytes is best confirmed by patch clamp electrophysiology, as described below.
Glomerular single-channel recordings: Acutely isolated glomeruli were prepared as described above. Single-channel recordings were carried out using an Axopatch 200B and Digidata 1550A (Molecular Devices). Bath and pipette solutions for glomerular single-channel recording contained (in mM) 135 CH3SO3Na, 5 CsCl, 2 CaCl2, 1 MgCl2, 10 HEPES, and 10 glucose with pH7.4 adjusted with NaOH. Once in the inside-out configuration, the bath solution was replaced by intracellular solution, containing (in mM) 135 CH3SO3Cs, 10 CsCl, 3 MgATP, 0.2 EGTA, 0.13 CaCl2, and 10 HEPES with pH 7.4 adjusted with CsOH. Patch pipettes, with resistance of 4-8 MΩ, were prepared using a two step-protocol (P-97, Sutter Instrument). Pipettes were fire-polished before use. For inside-out configuration, a giga-seal (>10 GΩ) was established prior to membrane rupture. Data was acquired at 10 kHz sampling frequency, and filtered with low-pass filtering at 1 kHz. Holding membrane potential was at −60 mV. Single-channel analysis was carried out using Clampfit 10.4 software (Molecular Devices).

SMILES | podocyte cell death on caAT1R expression (caAT1R podocytes) | block of TRPC5 channel activity, inside-out recordings in intact glomeruli (TRPC5 channel; AT1R Tg rats, Advanced, AC1903 1 μM) | inhibition of riluzole-activated channel activity, inside-out recordings of podocytes (TRPC5 channel; AT1R Tg rat glomeruli at disease onset (Onset), ML204 1 μM) | inhibition of riluzole-activated conductance, inside-out recordings of podocytes (TRPC5 channel; AT1R Tg rat glomeruli, established disease (Advanced), ML204 1 μM)
c1ccc(Cn2c(NCc3ccco3)nc3ccccc32)cc1 [AC1903] | protected from cell death | blocks TRPC5 channel activity | – | –
Cc1cc(N2CCCCC2)nc2ccccc12 [ML204, reference compound] | protected from cell death | – | significant ML204 inhibition of channel activity | inhibition of a much greater riluzole-activated conductance
